# Laboratory results: patent US20180099931A1 (AbbVie S.à.r.l., priority 2016, published 2018)
# Where two headings read alike, the source gives them in different places.
# Biological target: T1, F508delCFTR (Homo sapiens, UniProt P13569, DEL508-508)
# T1 construct: expressed in transfected cells; host or cells: CFBE41o- human lung-derived epithelial cells (CFBE4lo-F508delCFTR-HRP), doxycycline-inducible
# Experiment: Cell Surface Expression-Horse Radish Peroxidase (CSE-HRP) Assay;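 on Maximum % activity (with co-corrector): co-corrector and positive control are both the same reference corrector at 2 µM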;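 on Maximum % activity (without co-corrector): percent of the 2 µM on-plate positive control corrector response above DMSO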
# Type: cell-based
# Conditions: for Maximum % activity (with co-corrector) / Emax: maximum at any tested concentration, normalized to on-plate positive control; for Emax: read-out: Maximum % activity (without co-corrector)
# [1] = CSE-HRP, test compound without co-corrector, read-out: EC50 (without co-corrector)
# [2] = CSE-HRP, with co-corrector (2 μM of 3-[(2R,4R)-4-({[1-(2,2-difluoro-1,3-benzodioxol-5-yl)cyclopropyl]carbonyl}amino)-7-methoxy-3,4-dihydro-2H-chromen-2-yl]benzoic acid), read-out: EC50 (with co-corrector)
# [3] = test compound without co-corrector
# [4] = test compound without co-corrector, read-out: EC50 (without co-corrector)
# [5] = with co-corrector (2 μM of 3-[(2R,4R)-4-({[1-(2,2-difluoro-1,3-benzodioxol-5-yl)cyclopropyl]carbonyl}amino)-7-methoxy-3,4-dihydro-2H-chromen-2-yl]benzoic acid)
# [6] = with co-corrector (2 μM of 3-[(2R,4R)-4-({[1-(2,2-difluoro-1,3-benzodioxol-5-yl)cyclopropyl]carbonyl}amino)-7-methoxy-3,4-dihydro-2H-chromen-2-yl]benzoic acid), read-out: EC50 (with co-corrector)
# [7] = CSE-HRP, with co-corrector (2 μM)
# T1 sequence (P13569 with tags, fused parts or gaps DEL508-508): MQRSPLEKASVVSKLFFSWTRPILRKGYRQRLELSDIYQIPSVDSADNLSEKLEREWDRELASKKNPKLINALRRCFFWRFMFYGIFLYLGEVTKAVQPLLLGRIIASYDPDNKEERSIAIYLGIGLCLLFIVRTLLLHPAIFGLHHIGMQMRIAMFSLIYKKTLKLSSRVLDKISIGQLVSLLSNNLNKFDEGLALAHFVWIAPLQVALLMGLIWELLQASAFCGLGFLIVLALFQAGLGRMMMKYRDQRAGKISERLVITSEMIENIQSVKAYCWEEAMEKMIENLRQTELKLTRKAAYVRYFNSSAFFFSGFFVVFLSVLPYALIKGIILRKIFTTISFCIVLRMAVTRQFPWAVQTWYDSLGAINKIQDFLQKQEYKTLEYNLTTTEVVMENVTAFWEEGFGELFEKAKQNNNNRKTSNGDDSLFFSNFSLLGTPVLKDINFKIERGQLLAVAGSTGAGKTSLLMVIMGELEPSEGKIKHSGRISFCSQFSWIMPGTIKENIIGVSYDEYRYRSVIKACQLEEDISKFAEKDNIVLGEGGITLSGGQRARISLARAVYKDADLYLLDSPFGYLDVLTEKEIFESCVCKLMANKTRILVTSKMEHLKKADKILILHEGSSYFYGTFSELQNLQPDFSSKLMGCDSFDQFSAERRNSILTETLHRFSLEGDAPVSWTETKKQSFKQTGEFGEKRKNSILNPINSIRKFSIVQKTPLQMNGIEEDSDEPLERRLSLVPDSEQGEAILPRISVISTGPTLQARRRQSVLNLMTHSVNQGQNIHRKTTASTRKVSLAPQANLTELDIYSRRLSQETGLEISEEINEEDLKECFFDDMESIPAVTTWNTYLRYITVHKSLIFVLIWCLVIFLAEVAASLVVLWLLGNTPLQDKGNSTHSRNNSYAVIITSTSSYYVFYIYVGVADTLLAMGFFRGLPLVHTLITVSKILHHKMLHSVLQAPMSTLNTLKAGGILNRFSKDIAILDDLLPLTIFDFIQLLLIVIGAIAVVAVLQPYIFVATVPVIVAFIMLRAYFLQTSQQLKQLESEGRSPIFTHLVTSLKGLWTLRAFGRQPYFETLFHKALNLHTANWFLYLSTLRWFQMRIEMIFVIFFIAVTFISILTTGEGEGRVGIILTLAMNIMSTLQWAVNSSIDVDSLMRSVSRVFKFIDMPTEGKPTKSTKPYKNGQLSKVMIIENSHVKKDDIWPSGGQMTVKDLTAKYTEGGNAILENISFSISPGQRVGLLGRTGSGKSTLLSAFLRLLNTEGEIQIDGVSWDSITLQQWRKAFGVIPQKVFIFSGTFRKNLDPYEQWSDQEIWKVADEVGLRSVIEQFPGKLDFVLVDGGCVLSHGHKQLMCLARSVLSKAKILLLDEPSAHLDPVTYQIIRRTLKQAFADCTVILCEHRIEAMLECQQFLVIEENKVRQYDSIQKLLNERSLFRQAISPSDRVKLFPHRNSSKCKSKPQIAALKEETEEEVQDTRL
Structure (SMILES),EC50 [1] [µM],EC50 [2] [µM],"Maximum % activity (with co-corrector) (CSE-HRP, with co-corrector (2 μM), 2 µM)","Emax (CSE-HRP, without co-corrector) [%]",Emax [3] [%],EC50 [4] [µM],Maximum % activity (with co-corrector) [5],EC50 [6] [µM],Maximum % activity (with co-corrector) (with co-corrector (2 μM)),Emax (without co-corrector) [%],Maximum % activity (with co-corrector) [7]
COc1ccc(C(F)(F)F)cc1CN[C@H]1[C@H](C(C)(C)C)[C@@H](C(=O)O)N(C(=O)[C@@H]2CCCC(F)(F)C2)[C@H]1c1ccccc1 [Example I-124],,,,,,1 to 10,,1 to 10,+++ (≥350),< 100,
COc1ccc(C(C)(C)C)cc1CN[C@H]1[C@H](C(C)(C)C)[C@@H](C(=O)O)N(C(=O)C2CCCCN2S(C)(=O)=O)[C@H]1c1ccccc1 (some centres unmarked) [Example I-138],,,,,,1 to 10,,1 to 10,+++ (≥350),> 200,
"COc1ncc(C2CCC2)cc1CN[C@H]1[C@H](C(C)(C)C)[C@@H](C(=O)O)N(C(=O)OC(C)C)[C@H]1c1ccccc1C [Example 94, (2S,3S,4S,5S)-3-tert-butyl-4-{[(5-cyclobutyl-2-methoxypyridin-3-yl)methyl]amino}-5-(2-methylphenyl)-1-{[(propan-2-yl)oxy]carbonyl}pyrrolidine-2-carboxylic acid]",,,,,,1 to 10,,< 1,+++ (≥350),> 200,
CC(C)(C)[C@H]1[C@H](Nc2cc(C(F)(F)F)cc(C3CCC3)n2)[C@H](c2ccccc2)N(C(=O)C2CCCCC2)[C@@H]1C(=O)O [Example I-67],,,,,,1 to 10,,1 to 10,+++ (≥350),< 100,
COc1ncc(C2CCC2)cc1CN[C@H]1[C@H](C(C)(C)C)[C@@H](C(=O)O)N(C(=O)[C@@H]2CCCO2)[C@H]1c1cccnc1N(C)C [Example I-281],1 to 10,1 to 10,,100 to 200,,,,,,,+++ (≥350)
COc1ccc(C(F)(F)F)cc1CN[C@H]1[C@H](C(C)(C)OC)[C@@H](C(=O)O)N(C(=O)OC(C)C)[C@H]1c1ccccc1 [Example I-174],,,,,,1 to 10,,1 to 10,+++ (≥350),> 200,
"COc1ncc(C2CCC2)cc1CN(C)[C@H]1[C@H](C(C)(C)C)[C@@H](C(=O)O)N(C(=O)[C@@H]2CCCCO2)[C@H]1c1ccccc1C(C)C [Example 119, (2S,3S,4S,5S)-3-tert-butyl-4-{[(5-cyclobutyl-2-methoxypyridin-3-yl)methyl](methyl)amino}-1-[(2S)-oxane-2-carbonyl]-5-[2-(propan-2-yl)phenyl]pyrrolidine-2-carboxylic acid]",,,,,,< 1,,< 1,+++ (≥350),> 200,
"COc1ccc(C(C)(C)C)cc1CN[C@H]1[C@H](C(C)(C)C)[C@@H](C(=O)O)N(C(=O)[C@H]2CCCCO2)[C@H]1c1ccccc1F [Example 50, (2S,3S,4S,5S)-3-tert-butyl-4-{[(5-tert-butyl-2-methoxyphenyl)methyl]amino}-5-(2-fluorophenyl)-1-[(2R)-oxane-2-carbonyl]pyrrolidine-2-carboxylic acid]",,,,,,1 to 10,,1 to 10,+++ (≥350),100 to 200,
COc1ccc(C(F)(F)F)cc1CN[C@@H]1[C@@H](C(C)(C)C)[C@H](C(=O)O)N(C(=O)C2CCCCC2)[C@@H]1c1ccccc1N(C)C (racemic) [Example I-22],,,,,,1 to 10,,< 1,+++ (≥350),> 200,
COc1ccc(C(C)(C)C)cc1CN[C@H]1[C@H](C(C)(C)C)[C@@H](C(=O)O)N(C(=O)Cc2c[nH]cn2)[C@H]1c1ccccc1 [Example I-98],,,,,,1 to 10,,1 to 10,++ (≥150 and <350),< 100,
COc1nc(C(C)(C)C)ccc1CN[C@H]1[C@H](C(C)(C)C)[C@@H](C(=O)O)N(C(=O)C2CCCCC2)[C@H]1c1ccccc1C(C)C [Example I-187],,,,,,< 1,,< 1,+++ (≥350),> 200,

# More lines, now with the values ahead:
EC50 [1] [µM],EC50 [2] [µM],"Maximum % activity (with co-corrector) (CSE-HRP, with co-corrector (2 μM), 2 µM)","Emax (CSE-HRP, without co-corrector) [%]",Emax [3] [%],EC50 [4] [µM],Maximum % activity (with co-corrector) [5],EC50 [6] [µM],Maximum % activity (with co-corrector) (with co-corrector (2 μM)),Emax (without co-corrector) [%],Maximum % activity (with co-corrector) [7],Structure (SMILES)
1 to 10,1 to 10,++ (≥150 and <350),< 100,,,,,,,,"COc1ccc(C(F)(F)F)cc1CN[C@H]1[C@H](C(C)(C)C)[C@@H](C(=O)O)N(C(=O)C2Cc3ccccc3O2)[C@H]1c1ccccc1 (single isomer, unassigned) [II-265]"
,,,,> 200,1 to 10,+++ (≥350),< 1,,,,COc1ccc(C(C)(C)C)cc1CN[C@H]1[C@H](C(C)(C)C)[C@@H](C(=O)O)N(C(=O)[C@@H](C)c2ccccc2)[C@H]1c1ccccc1 [II-326]
,,,,100 to 200,1 to 10,+++ (≥350),1 to 10,,,,COc1cc2c(cc1CN[C@H]1[C@H](C(C)(C)C)[C@@H](C(=O)O)N(C(=O)OC(C)C)[C@H]1c1cccnc1N(C)C)CCCC2 [II-565]
1 to 10,1 to 10,,> 200,,,,,,,+++ (≥350),COc1ccc(C(C)(C)C)cc1CN[C@H]1[C@H](C(C)(C)C)[C@@H](C(=O)O)N(C(=O)OCC(C)C)[C@H]1c1ccccc1 [II-264]
,,,,< 100,> 10,,1 to 10,++ (≥150 and <350),,,COc1ncc(C(F)(F)F)cc1N[C@H]1[C@H](C(C)(C)C)[C@@H](C(=O)O)N(C(=O)[C@H]2CCCC[C@@H]2C(F)(F)F)[C@H]1c1cccnc1N(C)C [III-212]
< 1,< 1,,< 100,,,,,,,+++ (≥350),COc1ccc(C(C)(C)C)cc1CN[C@H]1[C@H](C(C)(C)C)[C@@H](C(=O)O)N(C(=O)c2coc3ccccc23)[C@H]1c1ccccc1 [II-185]
1 to 10,1 to 10,,> 200,,,,,,,+++ (≥350),COc1ncc(C(C)C)cc1CN[C@H]1[C@H](C(C)(C)OC)[C@@H](C(=O)O)N(C(=O)C2CCCCC2)[C@H]1c1ccccc1 [II-254]
1 to 10,< 1,,100 to 200,,,,,,,+++ (≥350),COc1ccc(C(C)(C)C)cc1CN[C@H]1[C@H](C(C)(C)C)[C@@H](C(=O)O)N(C(=O)C2COc3ccccc3C2)[C@H]1c1ccccc1 (some centres unmarked) [II-232]
1 to 10,< 1,,100 to 200,,,,,,,+++ (≥350),COc1ccc(C(C)(C)C)cc1CN[C@H]1[C@H](C(C)(C)C)[C@@H](C(=O)O)N(C(=O)Cc2cccc(C)c2)[C@H]1c1ccccc1 [II-203]
,,,,< 100,1 to 10,,1 to 10,++ (≥150 and <350),,,COc1cc(Cl)cnc1N[C@@H]1[C@@H](C(C)(C)OC)[C@H](C(=O)O)N(C(=O)C2CCCCC2)[C@@H]1c1ccccc1 (racemic) [III-111]
1 to 10,1 to 10,,< 100,,,,,,,+++ (≥350),CCOc1ccc(Cl)cc1CN[C@@H]1[C@@H](C(C)(C)C)[C@H](C(=O)O)N(C(=O)C2CCCCC2)[C@@H]1c1ccccc1 (racemic) [II-9]
,,,,< 100,< 1,,< 1,++ (≥150 and <350),,,CC(C)(C)[C@H]1[C@H](NCc2ccccc2C(F)F)[C@H](c2ccccc2)N(C(=O)C2CCCCC2)[C@@H]1C(=O)O [III-139]
,,,,> 200,1 to 10,+++ (≥350),< 1,,,,COc1ccc(-c2ccccc2)cc1CN[C@H]1[C@H](C(C)(C)C)[C@@H](C(=O)O)N(C(=O)[C@@H]2CCCCO2)[C@H]1c1cccnc1N(C)C [II-450]
,,,,> 200,1 to 10,,< 1,+++ (≥350),,,COc1ccc(C(C)(C)C)cc1CN[C@H]1[C@H](C(C)(C)C)[C@@H](C(=O)O)N(C(=O)CC2CCCCC2)[C@H]1c1ccccc1 [III-167]
1 to 10,1 to 10,,100 to 200,,,,,,,+++ (≥350),COc1cc(C(F)(F)F)ccc1CN[C@H]1[C@H](C(C)(C)C)[C@@H](C(=O)O)N(C(=O)[C@H]2CCCCO2)[C@H]1c1ccccc1 [II-81]
,,,,< 100,1 to 10,,1 to 10,++ (≥150 and <350),,,COc1ccc(CN[C@H]2[C@H](C(C)(C)C)[C@@H](C(=O)O)N(C(=O)C3CCCCC3)[C@H]2c2ccccc2)cc1Cl [III-126]
,,,,< 100,1 to 10,++ (≥150 and <350),1 to 10,,,,COc1ccc(C(C)(C)C)cc1CN[C@@H]1[C@@H](C(C)(C)C)[C@@H](C(=O)O)N(C(=O)[C@H](OC)c2ccccc2)[C@H]1c1ccccc1 [II-393]
1 to 10,< 1,,> 200,,,,,,,+++ (≥350),COc1ccc(C(C)(C)C)cc1CN[C@H]1[C@H](C(C)(C)C)[C@@H](C(=O)O)N(C(=O)Cc2ccccc2)[C@H]1c1ccccc1 [II-180]
